Measurements reported in patent US20230064983A1 (priority 2020, published 2023).

Key:
[1] = target: T1, EGFR with insertion SVD between D770 and N771 (mutEGFR D770_N771insSVD) (Homo sapiens, UniProt P00533, DUP768-770); assay: Exon20-Mutant-EGFR(D770_N771insSVD) kinase assay (TR-FRET); format: biochemical; conditions: 2 mM ATP, Table 2
T1 construct: amino acids R669 to A1210; made in house; host or cells: Sf9 insect cells (baculovirus)

Bub1 = target: T2, Bub1 (Homo sapiens, UniProt O43683); assay: Bub1 high ATP kinase assay (TR-FRET); format: biochemical; conditions: Bub1 high ATP (2 mM) IC50, TR-FRET, 2 mM ATP; Table 3
T2 construct: catalytic domain of human Bub1 (amino acids 704-1085); His6 (N); made in house; host or cells: insect cells (Hi5)
Summary of the method: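 Enzyme was His6-tagged human Bub1 catalytic domain (aa 704-1085) from Hi5 insect cells, typically about 200 ng/ml, with a biotinylated peptide substrate at high ATP. Reaction ran 60 min at 22 °C, then was stopped with EDTA. Phosphopeptide was detected by TR-FRET (anti-phosphoserine antibody, Eu-labelled anti-mouse IgG, streptavidin-XL665), read as the 665/620 nm emission ratio.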

[2] = target: Ba/F3-EGFR-D770_N771insSVD cells (Homo sapiens, UniProt P00533, DUP768-770, cells depend on it); assay: Ba/F3 cell survival assay, EGFR D770_N771insSVD; format: cell-based; conditions: Cell Titer-Glo, 48 h, without IL-3; Table 4; read-out: BA/F3 (insSVD) IC50
Ba/F3-EGFR-WT cells = Ba/F3-EGFR-WT cells (Homo sapiens, UniProt P00533); assay: Ba/F3 cell survival assay, wild type EGFR; format: cell-based; conditions: Cell Titer-Glo, 48 h, with 10 ng/mL EGF; Table 4; read-out: BA/F3 (wild type) IC50
Chain of Ba/F3-EGFR-WT cells (P00533 whole entry, looked up, change not shown): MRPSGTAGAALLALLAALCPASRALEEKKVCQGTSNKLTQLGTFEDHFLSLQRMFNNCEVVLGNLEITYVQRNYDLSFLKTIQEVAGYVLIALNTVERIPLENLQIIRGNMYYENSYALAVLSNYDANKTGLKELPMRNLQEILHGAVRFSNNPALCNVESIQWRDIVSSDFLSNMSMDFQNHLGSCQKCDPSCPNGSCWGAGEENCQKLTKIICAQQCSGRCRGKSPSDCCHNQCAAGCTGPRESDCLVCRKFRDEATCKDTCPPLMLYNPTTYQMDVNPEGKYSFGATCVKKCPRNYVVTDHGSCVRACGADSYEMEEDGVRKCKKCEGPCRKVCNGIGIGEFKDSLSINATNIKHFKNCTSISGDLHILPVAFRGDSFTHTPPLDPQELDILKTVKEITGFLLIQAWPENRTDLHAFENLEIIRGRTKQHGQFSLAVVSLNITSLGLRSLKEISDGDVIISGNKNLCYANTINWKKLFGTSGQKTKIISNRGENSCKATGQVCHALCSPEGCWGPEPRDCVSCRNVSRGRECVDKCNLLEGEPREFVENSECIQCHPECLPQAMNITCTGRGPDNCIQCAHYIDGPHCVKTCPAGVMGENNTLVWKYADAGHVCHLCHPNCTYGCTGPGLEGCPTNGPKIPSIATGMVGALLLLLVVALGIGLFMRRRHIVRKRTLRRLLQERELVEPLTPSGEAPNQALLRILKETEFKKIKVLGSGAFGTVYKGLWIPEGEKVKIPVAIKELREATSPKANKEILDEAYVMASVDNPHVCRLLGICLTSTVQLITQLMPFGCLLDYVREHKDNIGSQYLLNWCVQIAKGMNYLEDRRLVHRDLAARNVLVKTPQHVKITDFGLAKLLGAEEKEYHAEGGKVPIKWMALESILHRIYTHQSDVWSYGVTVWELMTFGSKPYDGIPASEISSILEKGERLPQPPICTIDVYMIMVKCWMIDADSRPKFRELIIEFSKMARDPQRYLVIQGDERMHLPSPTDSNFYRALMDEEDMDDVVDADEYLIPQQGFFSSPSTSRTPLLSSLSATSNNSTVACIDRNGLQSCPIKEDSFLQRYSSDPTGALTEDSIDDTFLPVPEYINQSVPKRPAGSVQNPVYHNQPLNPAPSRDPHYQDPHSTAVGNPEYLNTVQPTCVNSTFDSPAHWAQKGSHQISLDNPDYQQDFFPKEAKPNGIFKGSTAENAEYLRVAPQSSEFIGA

T2 sequence (O43683 704-1085): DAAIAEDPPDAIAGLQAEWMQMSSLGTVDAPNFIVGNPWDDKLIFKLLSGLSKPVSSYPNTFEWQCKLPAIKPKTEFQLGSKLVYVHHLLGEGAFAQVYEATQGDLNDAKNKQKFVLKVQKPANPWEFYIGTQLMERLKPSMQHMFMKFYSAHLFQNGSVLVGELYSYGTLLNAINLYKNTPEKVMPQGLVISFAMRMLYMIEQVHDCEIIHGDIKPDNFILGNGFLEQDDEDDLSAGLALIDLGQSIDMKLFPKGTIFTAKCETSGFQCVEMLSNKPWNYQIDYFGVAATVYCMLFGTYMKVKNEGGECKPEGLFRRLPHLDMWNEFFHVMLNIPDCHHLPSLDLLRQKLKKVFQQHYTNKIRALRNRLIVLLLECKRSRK
T1 sequence (P00533 other isoform, or with tags, fused parts or gaps DUP768-770): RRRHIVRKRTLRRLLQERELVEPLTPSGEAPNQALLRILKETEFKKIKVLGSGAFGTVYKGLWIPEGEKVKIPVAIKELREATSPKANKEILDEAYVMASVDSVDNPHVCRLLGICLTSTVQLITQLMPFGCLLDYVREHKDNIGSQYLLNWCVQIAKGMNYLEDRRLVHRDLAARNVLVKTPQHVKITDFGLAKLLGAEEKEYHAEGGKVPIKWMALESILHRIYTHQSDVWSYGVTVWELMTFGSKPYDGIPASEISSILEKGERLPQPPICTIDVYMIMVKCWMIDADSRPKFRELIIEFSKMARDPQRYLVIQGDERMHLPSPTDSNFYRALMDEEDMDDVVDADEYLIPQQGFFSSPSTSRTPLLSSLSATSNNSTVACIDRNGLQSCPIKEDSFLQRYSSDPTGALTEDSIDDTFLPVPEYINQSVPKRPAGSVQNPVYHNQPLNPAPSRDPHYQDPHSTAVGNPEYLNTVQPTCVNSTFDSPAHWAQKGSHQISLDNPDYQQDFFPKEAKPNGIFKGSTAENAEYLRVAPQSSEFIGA
Chain of Ba/F3-EGFR-D770_N771insSVD cells (P00533 with tags, fused parts or gaps DUP768-770): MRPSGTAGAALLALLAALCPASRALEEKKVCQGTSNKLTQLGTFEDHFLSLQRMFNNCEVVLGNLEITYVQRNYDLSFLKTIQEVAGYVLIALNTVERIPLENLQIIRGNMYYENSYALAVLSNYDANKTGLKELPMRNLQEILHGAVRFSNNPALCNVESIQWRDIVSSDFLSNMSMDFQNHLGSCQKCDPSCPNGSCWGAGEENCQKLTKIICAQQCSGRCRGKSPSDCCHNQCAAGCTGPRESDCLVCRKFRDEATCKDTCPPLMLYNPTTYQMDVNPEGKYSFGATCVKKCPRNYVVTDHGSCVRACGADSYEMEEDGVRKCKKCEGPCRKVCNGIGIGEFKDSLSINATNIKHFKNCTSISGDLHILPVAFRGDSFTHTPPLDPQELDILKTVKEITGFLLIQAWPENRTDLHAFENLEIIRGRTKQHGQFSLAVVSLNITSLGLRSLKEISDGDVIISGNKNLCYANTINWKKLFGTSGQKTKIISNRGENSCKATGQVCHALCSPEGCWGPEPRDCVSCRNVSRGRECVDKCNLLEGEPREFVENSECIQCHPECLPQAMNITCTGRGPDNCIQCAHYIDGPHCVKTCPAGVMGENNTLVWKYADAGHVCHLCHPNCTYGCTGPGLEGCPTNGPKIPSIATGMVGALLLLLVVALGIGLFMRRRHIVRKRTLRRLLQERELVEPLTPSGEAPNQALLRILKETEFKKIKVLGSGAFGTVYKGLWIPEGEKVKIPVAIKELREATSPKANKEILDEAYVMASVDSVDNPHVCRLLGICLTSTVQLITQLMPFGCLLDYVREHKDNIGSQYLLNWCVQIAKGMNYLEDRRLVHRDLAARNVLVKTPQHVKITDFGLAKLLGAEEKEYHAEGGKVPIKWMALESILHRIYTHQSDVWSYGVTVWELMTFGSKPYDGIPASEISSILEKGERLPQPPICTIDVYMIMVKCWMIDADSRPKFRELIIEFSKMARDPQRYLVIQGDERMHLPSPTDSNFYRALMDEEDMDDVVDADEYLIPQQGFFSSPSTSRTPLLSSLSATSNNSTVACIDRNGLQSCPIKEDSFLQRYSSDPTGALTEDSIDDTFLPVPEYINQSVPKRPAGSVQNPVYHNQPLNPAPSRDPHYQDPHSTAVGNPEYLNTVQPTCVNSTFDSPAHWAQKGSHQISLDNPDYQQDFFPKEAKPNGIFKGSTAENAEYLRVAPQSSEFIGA

SMILES	mutEGFR (D770_N771insSVD) kinase assay IC50 [1] [nM]	IC50 (Bub1) [nM]	GI50 [2] [nM]	GI50 (Ba/F3-EGFR-WT cells) [nM]
COc1c(Cl)cccc1Nc1c(-c2ccncc2OC[C@@H]2CN(C)CCO2)[nH]c2c1C(=O)NC1(CC1)C2 [Example 112, 3′-(3-chloro-2-methoxyanilino)-2′-(3-{[(2S)-4-methylmorpholin-2-yl]methoxy}pyridin-4-yl)-1′,7′-dihydrospiro[cyclopropane-1,6′-pyrrolo[3,2-c]pyridin]-4′(5′H)-one]	0.193	7830	20.4	553
Cc1c(Cl)cccc1Nc1c(-c2ccncc2OCC2COCCO2)[nH]c2c1C(=O)NCC2C (single isomer, unassigned) [Example 70, 3-(3-chloro-2-methyl-anilino)-2-[3-(1,4-dioxan-2-ylmethoxy)-4-pyridyl]-7-methyl-1,5,6,7-tetrahydropyrrolo[3,2-c]pyridin-4-one]	0.255	1550	224	4630
